Consider 24 compounds from PubChem BioAssay AID248 (DTP/NCI, 2004).

Where “and” joins values, the source holds several entries; their conditions need not be identical. Equal entries are not always repeated. Inconclusive results and toxic doses are left out.

The test system of the assay is L1210 leukemia ip in BDF1 mice, survival T/C. Kind of assay: NCI In Vivo Anticancer Drug Screen. Data for tumor model L1210 Leukemia (intraperitoneal) in B6D2F1 (BDF1) mice. The note with it: endpoint: mean survival time, higher = longer survival. The essentials:
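Transplantable tumor model; survival measured in treated vs vehicle control mice. Value = treated/control.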

Where [1] appears, read: dose: 100.0 mg/kg/injection, schedule: Q01DX001 (ip), vehicle: saline.
Where [2] appears, read: dose: 200.0 mg/kg/injection, schedule: Q01DX001 (ip), vehicle: saline.
The mark [3] stands for this setting: dose: 400.0 mg/kg/injection, schedule: Q01DX001 (ip), vehicle: saline.
Setting [4] is: dose: 25.0 mg/kg/injection, schedule: Q01DX009 (ip), vehicle: saline.
[5] abbreviates: dose: 50.0 mg/kg/injection, schedule: Q01DX009 (ip), vehicle: saline.
[6] abbreviates: dose: 50.0 mg/kg/injection, schedule: Q04DX003 (ip), vehicle: saline.
Setting [7] is: dose: 100.0 mg/kg/injection, schedule: Q04DX003 (ip), vehicle: saline.
Where [8] appears, read: dose: 200.0 mg/kg/injection, schedule: Q04DX003 (ip), vehicle: saline with Tween-80.
[9] abbreviates: dose: 100.0 mg/kg/injection, schedule: Q04DX002 (ip), vehicle: saline with Tween-80.
Setting [10] is: dose: 200.0 mg/kg/injection, schedule: Q04DX002 (ip), vehicle: saline with Tween-80.
The mark [11] stands for this setting: dose: 400.0 mg/kg/injection, schedule: Q04DX002 (ip), vehicle: saline with Tween-80.
The mark [12] stands for this setting: dose: 100.0 mg/kg/injection, schedule: Q04DX002 (ip), vehicle: Klucel (hydroxypropylcellulose) (HPC).
The mark [13] stands for this setting: dose: 200.0 mg/kg/injection, schedule: Q04DX002 (ip), vehicle: Klucel (hydroxypropylcellulose) (HPC).
The mark [14] stands for this setting: dose: 400.0 mg/kg/injection, schedule: Q04DX002 (ip), vehicle: Klucel (hydroxypropylcellulose) (HPC).
Where [15] appears, read: dose: 100.0 mg/kg/injection, schedule: Q01DX009 (ip), vehicle: Klucel (hydroxypropylcellulose) (HPC).
Setting [16] is: dose: 200.0 mg/kg/injection, schedule: Q01DX009 (ip), vehicle: Klucel (hydroxypropylcellulose) (HPC).
Setting [17] is: dose: 400.0 mg/kg/injection, schedule: Q01DX009 (ip), vehicle: Klucel (hydroxypropylcellulose) (HPC).
[18] abbreviates: dose: 100.0 mg/kg/injection, schedule: Q04DX003 (ip), vehicle: Klucel (hydroxypropylcellulose) (HPC).
Setting [19] is: dose: 200.0 mg/kg/injection, schedule: Q04DX003 (ip), vehicle: Klucel (hydroxypropylcellulose) (HPC).
Where [20] appears, read: dose: 50.0 mg/kg/injection, schedule: Q01DX009 (ip), vehicle: saline with Tween-80.
The mark [21] stands for this setting: dose: 100.0 mg/kg/injection, schedule: Q01DX009 (ip), vehicle: saline with Tween-80.
The mark [22] stands for this setting: dose: 100.0 mg/kg/injection, schedule: Q01DX001 (ip), vehicle: carboxymethylcellulose (CMC).
The mark [23] stands for this setting: dose: 200.0 mg/kg/injection, schedule: Q01DX001 (ip), vehicle: carboxymethylcellulose (CMC).
[24] abbreviates: dose: 400.0 mg/kg/injection, schedule: Q01DX001 (ip), vehicle: carboxymethylcellulose (CMC).

For `COC(=O)C(Cc1ccc(N(CCCl)CCCl)cc1)N=NNc1[nH]ncc1C(N)=O` (stereo not given), the T/C by setting is: (dose: 19.0 mg/kg/injection, schedule: Q01DX001 (ip), vehicle: other) 106 % of control; (dose: 38.0 mg/kg/injection, schedule: Q01DX001 (ip), vehicle: other) 124 % of control; (dose: 75.0 mg/kg/injection, schedule: Q01DX001 (ip), vehicle: other) 100 % of control; (dose: 150.0 mg/kg/injection, schedule: Q01DX001 (ip), vehicle: other) 155 % of control; (dose: 300.0 mg/kg/injection, schedule: Q01DX001 (ip), vehicle: other) 117 % of control.
Take `O=C(c1ccccc1)c1cc(CN(C2CCCCC2)C2CCCCC2)c(O)cc1O`: the T/C reads like this: under setting [1], 90 % of control; under setting [2], 91 % of control; under setting [3], 96 % of control.
Consider `NC1CC1c1ccccc1` (stereo not given), for which the T/C was 98 % of control and 93 % of control (dose: 12.5 mg/kg/injection, schedule: Q04DX003 (ip), vehicle: saline); 97 % of control under setting [4]; 96 % of control and 100 % of control and 92 % of control (dose: 25.0 mg/kg/injection, schedule: Q04DX003 (ip), vehicle: saline); 105 % of control under setting [5]; 96 % of control and 95 % of control and 100 % of control under setting [6]; 105 % of control (dose: 100.0 mg/kg/injection, schedule: Q01DX009 (ip), vehicle: saline). Besides, under setting [7], the T/C was 86 % of control and 103 % of control.
For `COC(=O)C1CC(C2c3ccccc3-c3ccccc32)CCC1N` (stereo not given), the T/C under setting [8] is 100 % of control.
`CC(C)(C)[C]1=Nc2cccc[c]2[Ge]1([CH3])[CH3]`: the T/C by setting is: under setting [9], 108 % of control; under setting [10], 93 % of control; under setting [11], 97 % of control.
With `O=S(=O)(c1ccccc1)C(Br)c1ccccc1` (stereo not given), the T/C was 101 % of control under setting [12], 105 % of control under setting [13] and 97 % of control under setting [14].
Regarding `NC(=S)Nc1ccc(Cc2ccc(NC(N)=S)cc2)cc1`, the T/C reads like this: under setting [15], 98 % of control; under setting [16], 91 % of control; under setting [17], 88 % of control.
In the case of `O=C(O)CCCOc1ccc(Cl)cc1`, the T/C is, setting by setting: under setting [12], 96 % of control; under setting [13], 101 % of control; under setting [14], 104 % of control.
For the compound `CCCc1c2cc(OC)c(OC)cc2cc2c3cc(OC)c(OC)cc3cc[n+]12` (tested in a mixture with another compound), the T/C (dose: 12.5 mg/kg/injection, schedule: Q01DX009 (ip), vehicle: Klucel (hydroxypropylcellulose) (HPC)) was 109 % of control; the T/C (dose: 25.0 mg/kg/injection, schedule: Q01DX009 (ip), vehicle: Klucel (hydroxypropylcellulose) (HPC)) was 107 % of control; the T/C (dose: 50.0 mg/kg/injection, schedule: Q01DX009 (ip), vehicle: Klucel (hydroxypropylcellulose) (HPC)) is 106 % of control and 123 % of control; the T/C under setting [18] was 100 % of control; the T/C under setting [19] was 110 % of control.
With `COc1ccc2nc3cc(Cl)ccc3c(NCCCNCCCl)c2c1`, the T/C runs as follows: (dose: 10.0 mg/kg/injection, schedule: Q04DX003 (ip), vehicle: Klucel (hydroxypropylcellulose) (HPC)) 115 % of control; (dose: 20.0 mg/kg/injection, schedule: Q04DX003 (ip), vehicle: Klucel (hydroxypropylcellulose) (HPC)) 103 % of control; (dose: 40.0 mg/kg/injection, schedule: Q04DX003 (ip), vehicle: Klucel (hydroxypropylcellulose) (HPC)) 105 % of control.
As for `FC(F)(F)c1cccc(NC2=NCCS2)c1`, the T/C under setting [20] was 91 % of control, the T/C under setting [21] was 98 % of control, the T/C under setting [9] is 97 % of control and the T/C under setting [10] was 115 % of control.
Take `N#CCCCc1ccc(C(=O)O)cc1`: the T/C runs as follows: under setting [22], 95 % of control; under setting [23], 100 % of control; under setting [24], 97 % of control.
`CCCC(CCC)(C(=O)OCCOCCCl)c1cccc2ccccc12`: the T/C under setting [9] was 89 % of control, the T/C under setting [10] was 99 % of control and the T/C under setting [11] was 95 % of control.
As for `COc1ccc(C)cc1NN`, the T/C reads like this: under setting [4], 101 % of control; under setting [5], 97 % of control; under setting [7], 96 % of control.
With `CCCCCCCCCCCCCCCCOc1ccc(C2=NCC(C)S2)c(C)c1` (stereo not given), the T/C reads like this: under setting [15], 101 % of control; under setting [16], 96 % of control; under setting [17], 97 % of control.
As to `CC(N)CSC(=O)c1ccccc1` (stereo not given), the T/C by setting is: (dose: 100.0 mg/kg/injection, schedule: Q04DX003 (ip), vehicle: saline with Tween-80) 100 % of control; under setting [8], 100 % of control; (dose: 400.0 mg/kg/injection, schedule: Q04DX003 (ip), vehicle: saline with Tween-80) 94 % of control.
For `NC1CCCCC1Cl` (stereo not given), the T/C is, setting by setting: under setting [1], 98 % of control; under setting [2], 96 % of control; under setting [3], 98 % of control.
As to `Cc1cc(C)nc(NC(=O)Nc2cc(Cl)ccc2C)c1`, the T/C is 90 % of control (dose: 100.0 mg/kg/injection, schedule: Q01DX001 (ip), vehicle: Klucel (hydroxypropylcellulose) (HPC)); 92 % of control under setting [15]; 100 % of control under setting [12]; 93 % of control under setting [18]; 100 % of control (dose: 200.0 mg/kg/injection, schedule: Q01DX001 (ip), vehicle: Klucel (hydroxypropylcellulose) (HPC)); 94 % of control and 91 % of control under setting [16]. The T/C reads like this: under setting [13], 96 % of control; under setting [19], 92 % of control; (dose: 400.0 mg/kg/injection, schedule: Q01DX001 (ip), vehicle: Klucel (hydroxypropylcellulose) (HPC)) 95 % of control; under setting [17], 94 % of control and 96 % of control; under setting [14], 100 % of control; (dose: 400.0 mg/kg/injection, schedule: Q04DX003 (ip), vehicle: Klucel (hydroxypropylcellulose) (HPC)) 109 % of control.
As to `Cc1c[n+]([O-])c(C)cc1N=Nc1ccc(N(C)C)cc1`, the T/C under setting [20] is 111 % of control; the T/C under setting [21] was 95 % of control; the T/C under setting [9] was 89 % of control; the T/C (dose: 200.0 mg/kg/injection, schedule: Q01DX009 (ip), vehicle: saline with Tween-80) was 90 % of control; the T/C under setting [10] was 99 % of control.
Regarding `CC1(C)OC2C(CNCCO)OC(OCc3ccccc3)C2O1` (stereo not given), the T/C was 102 % of control under setting [6]; 94 % of control under setting [7]; 88 % of control (dose: 200.0 mg/kg/injection, schedule: Q04DX003 (ip), vehicle: saline).
On to `COc1ccc2c(c1)sc(/C=C/c1ccc(O)c3ncccc13)[n+]2C`, for which the T/C reads like this: (dose: 75.0 mg/kg/injection, schedule: Q01DX001 (ip), vehicle: saline) 111 % of control; (dose: 150.0 mg/kg/injection, schedule: Q01DX001 (ip), vehicle: saline) 110 % of control; (dose: 300.0 mg/kg/injection, schedule: Q01DX001 (ip), vehicle: saline) 117 % of control.
Take `CC1(C)N=C(N)N=C(N)N1c1cccc(Oc2ccc(N)cc2)c1`: the T/C runs as follows: (dose: 25.0 mg/kg/injection, schedule: Q04DX003 (ip), vehicle: Klucel (hydroxypropylcellulose) (HPC)) 103 % of control; (dose: 50.0 mg/kg/injection, schedule: Q04DX003 (ip), vehicle: Klucel (hydroxypropylcellulose) (HPC)) 110 % of control.
On to `COC(=O)c1cn[nH]c1C(=O)OC`, for which the T/C was 100 % of control under setting [1], 100 % of control under setting [2] and 96 % of control under setting [3].
Turning to `COc1c(OC)c(OC)c2c(c1OC)c(=O)c1ccccc1n2C`, the T/C is, setting by setting: (dose: 50.0 mg/kg/injection, schedule: Q01DX001 (ip), vehicle: carboxymethylcellulose (CMC)) 93 % of control; under setting [22], 102 % of control; under setting [23], 96 % of control; under setting [24], 98 % of control.
